# Test results: EP4818178A1, “PREPARATION AND USE OF PYRIMIDOTHIOPYRANONE KRAS MUTANT PROTEIN INHIBITOR” (Ya Therapeutics Inc, priority 2024, dated 2025)
# Target: KRasG12D (Homo sapiens, UniProt P01116, G12D)
# Assay: KRAS inhibitory activity test, TR-FRET (inhibition of binding of KRasG12D to GTP, SOS/GTP nucleotide exchange)
# Format: biochemical
# Conditions: read-out: IC50 values of the compounds for inhibiting KRAS enzymes, G12D
# Experimental: • 1. […] Reagent Preparation: • a. Storage Reagents:
# Prepare a 1L solution by mixing 20mL of 1000mM HEPES, 20mL of 500mM EDTA, 10mL of 5M sodium chloride, 0.1mL of 100% Tween 20, and 949.9mL of water. Sterilize by filtration and store at 4°C.
# Prepare a 1L solution by mixing 20mL of 1000mM HEPES, 10mL of 1000mM magnesium chloride, 30mL of 5M sodium chloride, 0.05mL of 100% Tween 20, and 939.95mL of water. Sterilize by filtration and store at 4°C. 3) KRAS/Bodipy GDP/Tb-SA Mixture: Mix 9.5 µL of 95 µM KRasG12D protein with 440.5 µL of KRAS nucleotide exchange buffer. Incubate at room temperature for 1 hour. Then, mix with 8.4 µL of 17.9 µM Tb-SA, 1.8 µL of 5 mM Bodipy GDP, and 9539.8 µL of KRAS experimental buffer to prepare […]. After mixing, incubate at room temperature for 6 hours and store at -80°C.
# • 1) KRAS Enzyme Solution: Mix 73.3 µL of KRAS/Bodipy GDP/Tb-SA mixture with 2126.7 µL of KRAS experimental buffer to prepare a 2200 µL solution. • 2) SOS/GTP Mixture
# c. Experimental Procedure: Mix 1.59 µL of 166 µM SOS protein with 198 µL of 100 mM... GTP and 0.41 µL KRAS buffer were prepared to a 2200 µL solution. The stock solution concentration of the control compound was 1 mM, and the stock solution concentration of the test compound was 10 mM. 9 µL of the control compound and the test compound were transferred to a 384-LDV plate. The compound on the LDV plate was 3-fold diluted 10-point using Bravo. 9 nL of the compound on the LDV plate was transferred to the experimental plate using ECHO. 3 µL of a 3 nM Kras/0.5 nM TB-SA/30 nM BodipyGDP mixture and 3 µL of Ras buffer were added to each well of the experimental plate using a Dragonfly autopilot. The plate was centrifuged at 1000 rpm for 1 minute. The plate was incubated at room temperature for 1 hour. 3 µL of 120 nM SOS/9 mM KRAS buffer was added to each well of the experimental plate using a Dragonfly autopilot. The […] was centrifuged at 1000 rpm for 1 minute; the plate was incubated at room temperature for 1 hour; the plate was read and the data were recorded using Envision; the data were analyzed using Excel and Xlfit to calculate the IC50of the test compound. "++++" indicates IC50≤ 10 nM; "+++" indicates 10 nM < IC50≤ 100 nM; "++" indicates 100 nM < IC50≤ 2000 nM; "+" indicates 2000 nM < IC50.
# KRasG12D, sequence (P01116 1-188 isoform P01116-2 G12D): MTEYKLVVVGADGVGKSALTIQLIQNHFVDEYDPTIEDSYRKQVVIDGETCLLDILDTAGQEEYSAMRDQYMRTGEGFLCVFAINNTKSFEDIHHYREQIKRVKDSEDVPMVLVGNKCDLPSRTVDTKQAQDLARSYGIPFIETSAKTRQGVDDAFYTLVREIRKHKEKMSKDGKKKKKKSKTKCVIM
row,Compound,IC50 [nM]
1,"C=C1CN2CCC[C@@]2(COc2nc3c(c(N4CC5CCC(C4)N5)n2)CS(=O)(=O)C(c2nc(N)cc(C)c2C(F)(F)F)C3)C1 (stereo partly drawn) [Compound 20, 7-(6-amino-4-methyl-3-(trifluoromethyl)pyridin-2-yl)-2-(((S)-2-(methylene)tetrahydro-1H-pyrrolazin-7a(5H)-yl)methoxy)-4-(3,8-diazabicyclo[3.2.1]octane-3-yl)-7,8-dihy dro-5H-thiopyrano[4,3-d]pyrimidine-6,6-dioxide]",≤ 10
2,"Cc1cc(N)nc([C@@H]2Cc3nc(OC[C@@]45CCCN4C[C@H](F)C5)nc(N4C[C@H]5CC[C@@H](C4)N5)c3CS2(=O)=O)c1C(F)(F)F [Compound 3A, (7S)-7-(6-amino-4-methyl-3-(trifluoromethyl)pyridin-2-yl)-4-((1R,5S)-3,8-diazabicyclo[3.2.1]octane-3-yl)-2-(((2R,7AS)-2-fluorotetrahydro-1H-pyrrolazin-7a(5H)-yl)methoxy)-7,8-dihydro-5H-thiopyrano[4,3-d]pyrimidine 6,6-Dioxide]",10 to 100
3,"CC#Cc1cc(N)c(F)c(C2Cc3nc(OC[C@@]45CCCN4C/C(=C\F)C5)nc(N4CC5CCC(C4)N5)c3CS2(=O)=O)c1C(F)(F)F (stereo partly drawn) [Compound 24, 7-(3-amino-2-fluoro-5-(prop-1-yn-1-yl)-6-(trifluoromethyl)phenyl)-4-(3,8-diazabicyclo[3.2.1]octane-3-yl)-2-(((S)-2-(fluoromethylene)tetrahydro-1H-pyrrolazin-7a(5H)-yl)methoxy)-7,8-dihydro-5H-thiopyrano[4,3-d]pyrimidine-6,6-dioxide]",≤ 10
4,"CC#Cc1cc(N)c(F)c(C2Cc3nc(OC[C@@]45CCCN4C[C@H](F)C5)nc(N4CC5CCC(C4)N5)c3CS2(=O)=O)c1C(F)(F)F (stereo partly drawn) [Compound 21, 7-(3-amino-2-fluoro-5-(prop-1-yn-1-yl)-6-(trifluoromethyl)phenyl)-4-(3,8-diazabicyclo[3.2.1]octane-3-yl)-2-(((2R,7AS)-2-fluorotetrahydro-1H-pyrrolazin-7a(5H)-yl)methoxy)-7,8-dihydro-5H-thiopyrano[4,3-d]pyrimidine-6,6-dioxide]",≤ 10
5,CC#Cc1cc(N)cc(C2Cc3nc(OC[C@@]45CCCN4C/C(=C\F)C5)nc(N4CC5CCC(C4)N5)c3CS2(=O)=O)c1C(F)(F)F (stereo partly drawn) [Compound 32],≤ 10
6,Cc1cc(N)cc(C2Cc3nc(OC[C@@]45CCCN4CC(=C(F)F)C5)nc(N4CC5CCC(C4)N5)c3CS2(=O)=O)c1C(F)(F)F (stereo partly drawn) [Compound 40],≤ 10
7,"C=C1CN2CCC[C@@]2(COc2nc3c(c(N4CC5CCC(C4)N5)n2)CS(=O)(=O)[C@H](c2c(F)c(N)cc(C)c2C(F)(F)F)C3)C1 [Compound 11A, (7S)-7-(3-amino-2-fluoro-5-methyl-6-(trifluoromethyl)phenyl)-4-(3,8-diazabicyclo[3. 2.1]octane-3-yl)-2-(((S)-2-(methylene)tetrahydro-1H-pyrrolazin-7a(5H)-yl)methoxy)-7,8-dihydro-5H-thiopyrano[4,3-d]pyrimidine-6,6-dioxide]",≤ 10
8,"CC#Cc1cc(N)c(F)c(C2Cc3nc(OC[C@@]45CCCN4CC(=C(F)F)C5)nc(N4CC5CCC(C4)N5)c3CS2(=O)=O)c1C(F)(F)F (stereo partly drawn) [Compound 23, 7-(3-amino-2-fluoro-5-(prop-1-yn-1-yl)-6-(trifluoromethyl)phenyl)-4-(3,8-diazabicyclo[3.2.1]octane-3-yl)-2-(((S)-2-(difluoromethylene)tetrahydro-1H-pyrrolazin-7a(5H)-y 1)methoxy)-7,8-dihydro-5H-thiopyrano[4,3-d]pyrimidine-6,6-dioxide]",≤ 10
9,C=C1CN2CCC[C@@]2(COc2nc3c(c(N4CC5CCC(C4)N5)n2)CS(=O)(=O)C(c2cc(N)cc(C)c2C(F)(F)F)C3)C1 (stereo partly drawn) [Compound 38],≤ 10
10,"Cc1cc(N)c(F)c([C@@H]2Cc3nc(OC[C@@]45CCCN4CC(=C(F)F)C5)nc(N4CC5CCC(C4)N5)c3CS2(=O)=O)c1C(F)(F)F [Compound 10A, (7S)-7-(3-amino-2-fluoro-5-methyl-6-(trifluoromethyl)phenyl)-4-(3,8-diazabicyclo[3. 2.1]octane-3-yl)-2-(((S)-2-(difluoromethylene)tetrahydro-1H-pyrrolazin-7a(5H)-yl)methoxy)-7,8-dihydro-5H-thiopyrano[4,3-d]pyrimidine-6,6-dioxide]",≤ 10
11,"Cc1cc(O)c(F)c([C@@H]2Cc3nc(OC[C@@]45CCCN4C[C@H](F)C5)nc(N4C[C@H]5CC[C@@H](C4)N5)c3CS2(=O)=O)c1C(F)(F)F [Compound 2A, (7S)-4-((1R,5S)-3,8-diazabicyclo[3.2.1]octane-3-yl)-7-(2-fluoro-3-hydroxy-5-methyl-6-(trifluoromethyl)phenyl)-2-(((2R,7AS)-2-fluorotetrahydro-1H-pyrrolazin-7a(5H)-yl)methoxy)-7,8-dihydro-5H-thiopyrano[4,3-d]pyrimidine-6,6-dioxide]",10 to 100
12,"Cc1cc(N)c(F)c([C@@H]2Cc3nc(OC[C@@]45CCCN4C[C@H](F)C5)nc(N4C[C@H]5CC[C@@H](C4)N5)c3CS2(=O)=O)c1C(F)(F)F [Compound 1A, (7S)-7-(3-amino-2-fluoro-5-methyl-6-(trifluoromethyl)phenyl)-4-((1R,5S)-3,8-diazabicyclo[3.2.1]octane-3-yl)-2-(((2R,7AS)-2-fluorotetrahydro-1H-pyrrolazin-7a(5H)-yl)methoxy)-7,8-dihydro-5H-thiopyrano[4,3-d]pyrimidine 6,6-Dioxide]",≤ 10
13,"Cc1cc(N)c(F)c([C@@H]2Cc3nc(OC[C@@]45CCCN4CC(=C(F)F)C5)nc(N4CC5CCC(C4)N5)c3CS2(=O)=O)c1C(F)(F)F [Compound 9A, (7S)-7-(3-amino-2-fluoro-5-methyl-6-(trifluoromethyl)phenyl)-4-(3,8-diazabicyclo[3. 2.1]octane-3-yl)-2-(((S)-2-(difluoromethylene)tetrahydro-1H-pyrrolazin-7a(5H)-yl)methoxy)-7,8-dihydro-5H-thiopyrano[4,3-d]pyrimidine-6,6-dioxide]",≤ 10
14,"Cc1cc(N)nc([C@@H]2Cc3nc(OC[C@@]45CCCN4CC(=C(F)F)C5)nc(N4CC5CCC(C4)N5)c3CS2(=O)=O)c1C(F)(F)F [Compound 18A, (7S)-7-(6-amino-4-methyl-3-(trifluoromethyl)pyridin-2-yl)-2-(((S)-2-(difluoromethylene)tetrahydro-1H-pyrrolazin-7a(5H)-yl)methoxy)-4-(3,8-diazabicyclo[3.2.1]octane-3-yl)-7,8-dihydro-5H-thiopyrano[4,3-d]pyrimidine-6,6-dioxide]",≤ 10
15,"Cc1cc(N)nc(C2Cc3nc(OC[C@@]45CCCN4CC(=C(F)F)C5)nc(N4CC5CCC(C4)N5)c3CS2(=O)=O)c1C(F)(F)F (stereo partly drawn) [Compound 18, 7-(6-amino-4-methyl-3-(trifluoromethyl)pyridin-2-yl)-2-(((S)-2-(difluoromethylene)tetrahydro-1H-pyrrolazin-7a(5H)-yl)methoxy)-4-(3,8-diazabicyclo[3.2.1]octane-3-yl)-7,8-dihydro-5H-thiopyrano[4,3-d]pyrimidine-6,6-dioxide]",≤ 10
16,"C=C1CN2CCC[C@@]2(COc2nc3c(c(N4CC5CCC(C4)N5)n2)CS(=O)(=O)C(c2c(F)c(N)cc(C)c2C(F)(F)F)C3)C1 (stereo partly drawn) [Compound 11, 7-(3-amino-2-fluoro-5-methyl-6-(trifluoromethyl)phenyl)-4-(3,8-diazabicyclo[3.2.1]octane-3-yl)-2-(((S)-2-(methylene)tetrahydro-1H-pyrrolazin-7a(5H)-yl)methoxy)-7,8-d ihydro-5H-thiopyrano[4,3-d]pyrimidine-6,6-dioxide]",≤ 10
17,"Cc1cc(N)nc(C2Cc3nc(OC[C@@]45CCCN4CC(=CF)C5)nc(N4CC5CCC(C4)N5)c3CS2(=O)=O)c1C(F)(F)F (stereo partly drawn) [Compound 19, 7-(6-amino-4-methyl-3-(trifluoromethyl)pyridin-2-yl)-2-(((S)-2-(fluoromethylene)tetrahydro-1H-pyrrolazin-7a(5H)-yl)methoxy)-4-(3,8-diazabicyclo[3.2.1]octane-3-yl)-7,8-dihydro-5H-thiopyrano[4,3-d]pyrimidine-6,6-dioxide]",≤ 10
18,Cc1cc(N)cc(C2Cc3nc(OC[C@@]45CCCN4C/C(=C\F)C5)nc(N4CC5CCC(C4)N5)c3CS2(=O)=O)c1C(F)(F)F (stereo partly drawn) [Compound 35],≤ 10
